Experimental data as given in patent US20250288584A1, “COMBINATIONS COMPRISING POSITIVE ALLOSTERIC MODULATORS OR ORTHOSTERIC AGONISTS OF METABOTROPIC GLUTAMATERGIC RECEPTOR SUBTYPE 2 AND THEIR USE” (JANSSEN PHARMACEUTICA NV, priority 2014, published 2025).
Values joined by “and” are separate entries in the source; they are usually repeats but may differ in a detail not shown here. Identical values can stand only once.

Columns and labels:
6 Hz seizures = details: dose-dependent manner; cited from earlier work
MES seizures = details: in vivo; cited from earlier work
paroxysmal dystonia = details: dt^sz mutant hamster; cited from earlier work
[1] = tested on: 6 Hz (32 mA) psychomotor seizures; assay: 6 Hz psychomotor seizure test, 32 mA (incl. TPE determination); format: in vivo, mice; details: at TPE; for ED50: Mus musculus, sc, read-out: ED50 (95% CI) 32 mA
Method: Test compounds were administered using an optimal fluid volume to body fluid ratio. Test compounds were administered to mice in a volume of 0.01 mL/g of body weight (White H. S., et al., General Principles: Experimental selection, quantification, and evaluation of antiepileptic drugs, in Antiepileptic Drugs, Fourth Edition, […], and B. S. Meldrum, Editors. 1995, Raven Press, Ltd.: New York, pp. 99-110). For subcutaneous (s.c.) administration, the test compounds were administered into a loose fold of skin along the back of the animal except compound 6-b, which was administered orally (p.o). […] The animals were maintained on an adequate diet (Prolab RMH 3000) and allowed free access to food and water, except during the short time they were removed from their cage for testing. Animals newly received in the laboratory were allowed sufficient time to correct for possible food and water restriction incurred during transit before being employed in testing. All mice were housed in plastic cages in specially constructed rooms with controlled humidity, exchange of air and controlled lighting (12 hours on-12 hours off). The animals were housed, fed, and handled in a manner consistent with the recommendations in the National Council Publication, “Guide for the Care and Use of Laboratory Animals”. In the determination of an ED50 or TD50 for each test compound, the first dose administered is usually the same dose as that used in a successful TPE determination. […] Third and fourth doses were selected to produce an evenly spaced dose response line. […] TPE was determined using the 6 Hz (32 mA) assay. […] The 6 Hz seizure test is used as a model of pharmacoresistant limbic seizures. […] Focal seizures were induced in mice via corneal stimulation (6 Hz, 0.2 msec rectangular pulse, 3 sec duration; Barton et al. 2001). Mice were tested at either 32 mA or 44 mA. […] The seizures that arise from corneal stimulation in this assay are characterized by a minimal clonic phase followed by stereotyped automatistic behaviors including stun, forelimb clonus, twitching of the vibrissae, and Straub-tail. Animals not displaying these behaviors were considered protected.

[2] = tested on: 6 Hz (44 mA) psychomotor seizures; assay: 6 Hz psychomotor seizure test, 44 mA (alone, combination with LEV, isobolographic study); format: in vivo, mice; details: for ED50: at TPE, read-out: ED50 (95% CI) 44 mA
Method: Test compounds were administered using an optimal fluid volume to body fluid ratio. Test compounds were administered to mice in a volume of 0.01 mL/g of body weight (White H. S., et al., General Principles: Experimental selection, quantification, and evaluation of antiepileptic drugs, in Antiepileptic Drugs, Fourth Edition, […], and B. S. Meldrum, Editors. 1995, Raven Press, Ltd.: New York, pp. 99-110). For subcutaneous (s.c.) administration, the test compounds were administered into a loose fold of skin along the back of the animal except compound 6-b, which was administered orally (p.o). […] The animals were maintained on an adequate diet (Prolab RMH 3000) and allowed free access to food and water, except during the short time they were removed from their cage for testing. Animals newly received in the laboratory were allowed sufficient time to correct for possible food and water restriction incurred during transit before being employed in testing. All mice were housed in plastic cages in specially constructed rooms with controlled humidity, exchange of air and controlled lighting (12 hours on-12 hours off). The animals were housed, fed, and handled in a manner consistent with the recommendations in the National Council Publication, “Guide for the Care and Use of Laboratory Animals”. In the determination of an ED50 or TD50 for each test compound, the first dose administered is usually the same dose as that used in a successful TPE determination. […] Third and fourth doses were selected to produce an evenly spaced dose response line. […] The 6 Hz seizure test is used as a model of pharmacoresistant limbic seizures. […] Focal seizures were induced in mice via corneal stimulation (6 Hz, 0.2 msec rectangular pulse, 3 sec duration; Barton et al. 2001). Mice were tested at either 32 mA or 44 mA. […] The seizures that arise from corneal stimulation in this assay are characterized by a minimal clonic phase followed by stereotyped automatistic behaviors including stun, forelimb clonus, twitching of the vibrissae, and Straub-tail. Animals not displaying these behaviors were considered protected. […] In addition to recording the efficacy and toxicity data for these compounds alone or in combination, both plasma and brain samples were collected from each of the groups for pharmacokinetic/pharmacokinetic analysis. No pharmacokinetic interaction was observed based on compound levels in the plasma and brain samples (data not shown). Isobolographic studies were conducted for the combined administration of Co. […] Studies were conducted according to previously described methods (Madsen et al. 2011). Initial ED50 values were determined for both Co. […] Co. […] Doses used were proportional to calculated ED50 values. […] Experimental treatment doses (see Table 4) were based on theoretical values and adjusted according to observed effects. Experimentally determined ED50 (+SEM) values for each fixed dose-ratio combination were compared to the theoretical values (t-test) for statistical purposes. […] Subsequently, the experimental combined doses were determined for the same paradigms in the 6 Hz seizure test (Table 4 below).

human mGlu2 receptor = target: T1, human mGlu2 receptor (Homo sapiens, UniProt Q14416); assay: [35S]GTPγS binding assay, mGluR2 PAM; format: biochemical; details: maximal % effect relative to control glutamate response; EC20 glutamate; read-out: GTPγS-hmGluR2 PAM Emax
T1 construct: expressed in transfected cells; host or cells: CHO cells
T1 sequence (Q14416 19-872): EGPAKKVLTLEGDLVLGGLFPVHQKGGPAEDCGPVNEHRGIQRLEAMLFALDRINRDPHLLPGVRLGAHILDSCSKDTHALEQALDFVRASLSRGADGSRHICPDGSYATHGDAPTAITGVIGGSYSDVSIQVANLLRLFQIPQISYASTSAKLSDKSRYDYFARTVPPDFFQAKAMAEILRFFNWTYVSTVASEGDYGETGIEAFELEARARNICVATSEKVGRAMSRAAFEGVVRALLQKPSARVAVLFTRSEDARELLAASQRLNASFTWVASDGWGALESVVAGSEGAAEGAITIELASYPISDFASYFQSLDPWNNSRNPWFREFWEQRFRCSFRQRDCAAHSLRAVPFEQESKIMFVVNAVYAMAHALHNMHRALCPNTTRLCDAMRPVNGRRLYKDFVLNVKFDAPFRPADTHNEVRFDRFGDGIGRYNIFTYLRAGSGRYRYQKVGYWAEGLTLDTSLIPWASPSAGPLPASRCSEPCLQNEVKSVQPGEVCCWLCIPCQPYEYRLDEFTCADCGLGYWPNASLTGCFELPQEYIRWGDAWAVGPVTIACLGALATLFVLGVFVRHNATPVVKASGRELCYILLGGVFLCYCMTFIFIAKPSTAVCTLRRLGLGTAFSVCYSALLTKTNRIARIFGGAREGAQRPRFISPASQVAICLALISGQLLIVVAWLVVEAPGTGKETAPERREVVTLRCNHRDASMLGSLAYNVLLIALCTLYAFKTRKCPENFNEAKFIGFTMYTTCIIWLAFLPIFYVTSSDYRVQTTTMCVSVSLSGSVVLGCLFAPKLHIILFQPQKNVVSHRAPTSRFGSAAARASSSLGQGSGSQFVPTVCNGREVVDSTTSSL
Method: The [^35S]GTPγS binding assay is a functional membrane-based assay used to study G-protein coupled receptor (GPCR) function whereby incorporation of a non-hydrolysable form of GTP, [^35S]GTPγS (guanosine 5′-triphosphate, labelled with […] ^35S), is measured.
Cells were then collected by scraping in PBS and cell suspension was centrifuged (10 min at 4000 RPM in benchtop centrifuge). Supernatant was discarded and pellet gently resuspended in 50 mM Tris-HCl, pH 7.4 by mixing with a vortex and pipetting up and down. The suspension was centrifuged at 16,000 RPM (Sorvall RC-5C plus rotor SS-34) for 10 minutes and the supernatant discarded. The pellet was homogenized in 5 mM Tris-HCl, pH 7.4 using an ultra-turrax homogenizer and centrifuged again (18,000 RPM, 20 min, 4° C.). The final pellet was resuspended in 50 mM Tris-HCl, pH 7.4 and stored at-80° C. in appropriate aliquots before use. Protein concentration was determined by the Bradford method (Bio-Rad, USA) with bovine serum albumin as standard.
Measurement of mGluR2 positive allosteric modulatory activity of test compounds was performed as follows. Test compounds and glutamate were diluted in assay buffer containing 10 mM HEPES acid, 10 mM HEPES salt, pH 7.4, 100 mM NaCl, 3 mM MgCl2 and 10 μM GDP. Human mGlu2 receptor-containing membranes were thawed on ice and diluted in assay buffer supplemented with 14 μg/ml saponin. Membranes were pre-incubated with compound alone or together with a predefined (˜EC20) concentration of glutamate (PAM assay) for 30 min at 30° C. After addition of [^35S] GTPγS (f.c. 0.1 nM), assay mixtures were shaken briefly and further incubated to allow [^35S] GTPγS incorporation on activation (30 minutes, 30° C.). Final assay mixtures contained 7 μg of membrane protein in 10 mM HEPES acid, 10 mM HEPES salt, pH 7.4, 100 mM NaCl, 3 mM MgCl2, 10 µM GDP and 2 μg/ml saponin. Total reaction volume was 200 μl. Reactions were terminated by rapid filtration through Unifilter-96 GF/B plates (Perkin Elmer, Massachusetts, USA) using a 96-well filtermate universal harvester. Filters were washed 6 times with ice-cold 10 mM NaH2PO4/10 mM Na2HPO4, pH 7.4. Filters were then air-dried, and 40 μl of liquid scintillation cocktail (Microscint-O) was added to each well. Membrane-bound radioactivity was counted in a Microplate Scintillation and Luminescence Counter from Perkin Elmer.
The concentration-response curves of representative compounds of the present invention-obtained in the presence of EC20 of mGluR2 agonist glutamate to determine positive allosteric modulation (PAM)—were generated using the Lexis software interface (developed at J&J). Data were calculated as % of the control glutamate response, defined as the maximal response that is generated upon addition of glutamate alone. Sigmoid concentration-response curves plotting these percentages versus the log concentration of the test compound were analyzed using non-linear regression analysis. The concentration producing half-maximal effect is then calculated as EC50. The pEC50 values below were calculated as the −log EC50, when the EC50 is expressed in M. Emax is defined as relative maximal effect (i.e. maximal % effect relative to the control glutamate response).

corneal kindled seizures = assay: Mouse corneal kindling model; format: in vivo, mice; details: Racine score 0-5
Method: After the mice reached a stable kindled state, the test compound or vehicle was administered and, at the previously determined TPE, each animal was given the electrical stimulus indicated above. […] One dose of LEV and two doses of Co.

[3] = Plasma and brain levels (pK/pD analysis); format: in vivo, mice; details: for concentration at 0.25 h: mouse, subcutaneous
Method: In various tests, animals were sacrificed following testing, and trunk blood and/or brain tissue (whole brains) was collected for quantification of drug levels. Immediately after testing, animals were decapitated and trunk blood was collected into a BD Vacutainer® tube containing K2EDTA and chilled on ice until centrifugation. Following centrifugation (13000-18000 rpm, 5-7 min), the plasma was removed and transferred to a labeled microcentrifuge tube and stored at −80° C. For brain tissue collection, brains were removed immediately following decapitation and flash frozen. The frozen sample was placed in a labeled centrifuge tube and stored at −80° C.
In addition to recording the efficacy and toxicity data for these compounds alone or in combination, both plasma and brain samples were collected from each of the groups for pharmacokinetic/pharmacokinetic analysis.

[4] = Mus musculus, sc, compound alone
[5] = Co. No. 2 3 mg/kg combined with LEV 10 mg/kg, 6 Hz 44 mA

N[C@@]1(C(=O)O)CS[C@H]2[C@H](C(=O)O)[C@H]21 [LY389795]
activity in the 6 Hz model (6 Hz seizures): effective
activity in maximal electroshock (MES) seizure test (MES seizures): ineffective

CCC[C@@H]1CC(=O)N([C@@H](CC)C(N)=O)C1 [Brivaracetam, (2S)-2-[(4R)-oxo-4-propyl-pyrrolidin-1-yl]butanamide]
effect on severity of dystonia (paroxysmal dystonia): reduce the severity of dystonia

FC(F)(F)Cc1nnc2c(Cl)c(N3CCC(F)(c4ccccc4)CC3)ccn12 [Co. No. 11]
ED50 [1]: 4.77 mg/kg
ED50 (95% CI) 32 mA ([1]; s.c.): 9.41 (1.53-15.1) mg/kg
ED50 [2, 4]: 31.5 mg/kg
Emax (human mGlu2 receptor): 310%
Seizure score (dose) Corneal kindling (corneal kindled seizures; 100 mg/kg s.c.): 2.8

FC(F)(F)c1c(N2CCC(c3ccccc3)CC2)ccn2c(CC3CC3)nnc12 [Co. No. 2]
ED50 [1]: 3.83 mg/kg
responders at 3 mg/kg ([2]; Mus musculus, sc, 0.25 h, 3 mg/kg s.c., 0.25 h, read-out: # protected/# tested (converted)): 16.7%
ED50 [2, 4]: 5.89 mg/kg
Maximum Effect (% Protection) ([2]; compound alone): 100%
Brain (ng/ml) Co. No. 2, individual mice [3, 5]: 1120 ng/mL and 1140 ng/mL and 1540 ng/mL and 1020 ng/mL
Plasma (ng/ml) Co. No. 2, individual mice [3, 5]: 4700 ng/ml and 467 ng/ml and AQL and (>500) ng/ml and 2080 ng/ml and 1830 ng/ml and 386 ng/ml
concentration at 0.25 h ([3]; brain, 3 mg/kg, Mean Brain Level (non-combination) Co. No. 2, Co. No. 2 3 mg/kg alone): 1110 ng/mL
concentration at 0.25 h ([3]; brain, Brain (ng/ml) Co. No. 2, individual mice, Co. No. 2 3 mg/kg combined with LEV 10 mg/kg, 6 Hz 44 mA): 1310 ng/mL
concentration at 0.25 h ([3]; brain, Mean Brain Level Co. No. 2, Co. No. 2 3 mg/kg combined with LEV 10 mg/kg): 1230 ng/mL
concentration at 0.25 h ([3]; plasma, 3 mg/kg, Mean Plasma Level (non-combination) Co. No. 2, Co. No. 2 3 mg/kg alone): 1300 ng/mL
concentration at 0.25 h ([3]; plasma, Mean Plasma Level Co. No. 2, Co. No. 2 3 mg/kg combined with LEV 10 mg/kg): 1890 ng/mL
Seizure score (dose) Corneal kindling (corneal kindled seizures; 40 mg/kg s.c.): 3.4

N[C@@]1(C(=O)O)CO[C@H]2[C@H](C(=O)O)[C@H]21 [LY379268]
activity in the 6 Hz model (6 Hz seizures): effective
activity in maximal electroshock (MES) seizure test (MES seizures): ineffective

CC[C@@H](C(N)=O)N1C[C@H](C=C(F)F)CC1=O [Seletracetam, (2S)-2-[(4S)-4-(2,2,-difluorovinyl)-2-oxo-pyrrolidin-1-yl]butanamide]
effect on severity of dystonia (paroxysmal dystonia): reduce the severity of dystonia
